The source of these data is US20190276475A1, “CRYSTAL AND SALT OF NITROIMIDAZOLE, AND MANUFACTURING METHOD THEREOF” (priority 2016, published 2019).

The nature of series [1]: Solid stability test under high temperature and high humidity conditions.
Text: The samples placed under different conditions were sampled and tested on the 5th day and 10th day, and the test results were compared with the initial test results of 0 days.
Series [2] can be described thus: physchem. The following applies: 22 °C, pH 2, aqueous buffer, kinetic from dmso stock.
Experimental: The test compound and the control compound (10 mM DMSO mother liquor, 10 μL per well) were added to a 96-well plate containing 490 μL buffer per well. After 2 minutes of vortexing, the sample plate were incubated for 24 hours at room temperature (22±2° C.) on a shaker. 200 μL sample was then transferred to a Multi Screen filter plate (polycarbonate membrane), filtered through a millipore vacuum manifold and the filtrate was collected. The concentration of the compound in the filtrate was determined by HPLC-UV. Three UV standard solution of different concentrations and the solubility test sample were injected successively. Each sample was inserted twice, and the concentration was calculated by standard curve line and averaged.
Series [3] can be described thus: Stability test in different solvents for the crystal form A. The following applies: stirred at 40° C. for 2 days.
Experimental: The mixture was stirred at 40° C. for 2 days, and then centrifuged. The solid in all samples was collected, dried in a vacuum oven (40° C.) overnight, and was tested for crystal form by XRPD.
The subject of the next series is M. tuberculosis H37R. Kind of series: In vitro MIC against M. tuberculosis H37Rv, LORA. The class given is cell-based. The following applies: Mycobacterium tuberculosis, read-out: M. tuberculosis H37R LORA (MIC) (μg/mL).
In another series the test system is M. tuberculosis H37Rv. In words: In vitro MIC against M. tuberculosis H37Rv, MABA. The class given is cell-based.
The subject of another series is MDR1-MDCK cells. Kind of series: Bidirectional permeability in MDR1-MDCK cells. The class given is in vitro ADME. Particulars: conclusion.
In a further series the test system is Vero Cell. In words: Vero cell cytotoxicity.
The test system of a further series is M. bovis ATCC35737. The class given is cell-based.
Series [4] is described as follows: physchem. Particulars: thermodynamic from solid, Solubility (mg/mL).
Experimental: The solubility test was carried out by using a manual stepwise dilution method under normal temperature conditions while observing the dissolution. About 2 mg of the crystal form C of the compound represented by formula (I) was added into different vials used in the liquid phase, and then an organic solvent or solvent mixture was added in small portions to observe the dissolution of the compound.
The test system of series [5] is Mycobacterium tuberculosis Erdman, ATCC 35801. In words: In vivo efficacy in mouse model of chronic infection. Particulars: mice, whole lung, day 32 to 59 after infection, counted day 60.
The mark [6] stands for this setting: high temperature (60° C., open), 5th day.
Setting [7] is: high temperature (60° C., open), 10th day.

Experimental for MDR1-MDCK cells: MDR1-MDCK cells permanently expressing human P-glycoprotein were inoculated in a 96-well Insert cell plate and cultured for 4-7 days to form convergent monolayer cells.
After the incubation, the sample solutions in the donor wells and receiver wells were immediately mixed with cold acetonitrile solution containing an internal standard. The amount of the intracellular accumulated compound was measured by lysing the cells with the cold acetonitrile solution containing an internal standard. The concentration of the test compound in all samples (including the starting dosing solution, the supernatant in the donor wells, the receiving solution, and the cell lysate) was analyzed by LC/MS/MS method. The concentration of the test compound was expressed by the ratio of the peak area of the compound to the peak area of the internal standard.
The standard conditions for the transport experiment of the compound represented by formula (I) were as follows:
Test concentration: 2 (DMSO≤1%);
Direction: bidirectional transport, including A→B and B→A these two directions;
Inoculated time: single time, 2.5 hours;
Buffer for transport: HBSS, pH 7.4;
Inoculated condition: 37° C., 5% CO2, 95% relative humidity.

For the molecule `C[C@]1(CN2Cc3nc(-c4ccc(F)cc4)sc3C2)Cn2cc([N+](=O)[O-])nc2O1.O=S(=O)(O)c1ccccc1`, the Appearance entry is recorded as “grey powder” in [1] (0 day); “grey powder” in [1] ([…], open), 5th day); “grey powder” in series [1] (setting [6]). In addition, the “Total impurity (%)” value in series [1] (0 day) amounted to 1.32%; in series [1] ([…], open), 5th day), 1.32%; in series [1] ([…], open), 10th day) it was 1.60%; in series [1] (setting [6]) it was 1.49%; in [1] (setting [7]) it was 1.86%. The XRPD entry in series [1] (0 day) is on record as “crystal”; in series [1] ([…], open), 5th day), “crystal”; in [1] ([…], open), 10th day), “crystal”; in [1] (setting [6]), “crystal”; in [1] (setting [7]) it was “crystal”. The kinetic solubility at 24 h in the series “physchem [2]” was 32.2 µM. In addition, the “Appearance (2 days)” value in [3] (acetonitrile-water (1:1)), in series [3] (acetonitrile), in series [3] (ethanol-water (1:1)), in [3] (ethanol), in series [3] (ethyl acetate) and in series [3] (isopropanol-water (1:1)) was “suspension” in each case. Further, the “Appearance (2 days)” value in series [3] (isopropanol) is reported as “suspension”. Also, the “Result (crystal form by XRPD)” value in series [3] (acetonitrile-water (1:1)), in [3] (acetonitrile), in series [3] (ethanol-water (1:1)), in [3] (ethanol), in [3] (ethyl acetate) and in [3] (isopropanol-water (1:1)) was “crystal form A” in each case. The “Result (crystal form by XRPD)” value in series [3] (isopropanol) is reported as “crystal form A”.
Take `C[C@]1(CN2Cc3nc(-c4ccc(F)cc4)sc3C2)Cn2cc([N+](=O)[O-])nc2O1` [the compound represented by formula (I)]: the MIC in the series with M. tuberculosis H37R was 1 to 32 µg/mL; against M. tuberculosis H37Rv (Mycobacterium tuberculosis, H37RV), less than 1 µg/mL. Besides, the “inhibitory activity against M. tuberculosis H37Rv strain (in words)” value with M. tuberculosis H37Rv (conclusion) is listed as “good inhibitory activity”. In addition, in the series with MDR1-MDCK cells, the “permeability compared to the reference compound OPC-67683 (in words)” value is given as “better permeability”. Besides, the IC50 in the series with Vero Cell (Chlorocebus sabaeus, Vero, read-out: Vero Cell (IC50) (μg/mL)) is more than 32 µg/mL. Also, in the series on Vero Cell (conclusion), the “cytotoxicity (in words)” value is listed as “without cytotoxicity”. For the same molecule, in the series on M. bovis ATCC35737 (MIC, BCG strain, Alamar Blue), the “M. bovis ATCC35737” value is less than 1 µg/mL. Also, the “inhibitory activity against M. bovis BCG strain (in words)” value in the series with M. bovis ATCC35737 (conclusion) is given as “good inhibitory activity”.
In the case of `C[C@]1(CN2Cc3nc(-c4ccc(F)cc4)sc3C2)Cn2cc([N+](=O)[O-])nc2O1`, the solubility in the series “physchem [4]” (aqueous with cosolvent or surfactant or cyclodextrin) and in “physchem [4]” (water) was less than 2000 µg/mL in each case.
In [5] (15 mg/kg oral), `CO[C@H]1/C=C/O[C@@]2(C)Oc3c(C)c(O)c4c(O)c(c(/C=N/N5CCN(C)CC5)c(O)c4c3C2=O)NC(=O)/C(C)=C\C=C\[C@H](C)[C@H](O)[C@@H](C)[C@@H](O)[C@@H](C)[C@H](OC(C)=O)[C@@H]1C` [Rifampin, reference compound] showed a Log value reduced of 2.2 and a Number of colony of 1.2E+04.
For `C[C@]1(COc2ccc(N3CCC(Oc4ccc(OC(F)(F)F)cc4)CC3)cc2)Cn2cc([N+](=O)[O-])nc2O1` [OPC-67683, Delamanid, reference compound], in series [5] (100 mg/kg oral), the Log value reduced worked out at 0.9 and the Number of colony stood at 2.3E+05.
With `C[C@]1(CN2Cc3nc(-c4ccc(F)cc4)sc3C2)Cn2cc([N+](=O)[O-])nc2O1.O=S(=O)(O)c1ccccc1` [the compound represented by formula (II)], the Log value reduced in series [5] (10 mg/kg oral) was determined as 0.9; in series [5] (30 mg/kg oral) it was 1.3; in series [5] (100 mg/kg oral) it was 1.7. Moreover, the Number of colony in [5] (10 mg/kg oral) was 2.7E+05; in [5] (30 mg/kg oral) it was 1.0E+05; in [5] (100 mg/kg oral), 4.1E+04.
For `NC(=O)c1cnccn1` [pyrazinamide, reference compound], in [5] (150 mg/kg oral), the Log value reduced came to 1.2 and the Number of colony is given as 1.2E+05.
